For assay [1], the system named is peripheral blood mononuclear cells (PBMC). The assay is described as follows: T-lymphocyte proliferation, PMA/ionomycin stimulated PBMC, 3 days. Conditions: Homo sapiens, 72 h, read-out: pIA50 Proliferation (3 days) (converted).
Source text: The cell signalling pathways triggered by T-cell activation through the T cell receptor and CD28 can be mimicked in vitro using a phorbol ester, phorbol 12-myristate 13-acetate (PMA), which activates protein kinase C, and ionomycin, which induces calcium release from internal cellular stores. PMA and ionomycin-stimulated proliferation of peripheral blood mononuclear cells (PBMC), of which the predominant cell type is T-lymphocytes, provides a suitable assay for measuring the ability of small molecules to block T-cell proliferation.
Blood was centrifuged at 850 g for 10 minutes and the plasma was removed. […] The blood/Lymphoprep layers were centrifuged at 850 g for 20 minutes at 18° C. (with no brake).
10 μl of compound in solution was then added to the 96-well flat bottom assay plate (final volume of 200 μl). […] Both were diluted to 4× the final assay concentration in complete medium. 50 μl of each reagent was dispensed per well to give a final assay concentration of 0.5 ng/ml PMA and 500 ng/ml ionomycin. Control wells received 100 μl cells with PMA only (negative control 1), with ionomycin only (negative control 2) and 100 μl cells with 50 μl PMA and 50 μl ionomycin with no test compound (positive control). 100 μl complete medium was added to the negative controls. […]
Assay [2] concerns activated T-lymphocytes. Nature of the assay: DNA synthesis ([3H]-thymidine incorporation) in activated T-lymphocytes. In kind it is cell-based. To be noted: Homo sapiens, T-lymphocyte; Mean±s.e.mean (mean±range for n=2); read-out: pIA50 DNA (converted). As to the method:
(§1) PBMCs were prepared as described above by separation over Lymphoprep and T-lymphocytes were then enriched by purification on a nylon wool column. Briefly, 0.6 g nylon wool was inserted into a 10 ml syringe and this was autoclaved. […] The PBMC were resuspended in 1 ml of pre-warmed RPMI (20% HS) and were loaded onto the nylon wool column. The column was incubated for 45 min at 37° C. followed by elution of the T-cells by adding 10 ml RPMI (20% HS) (prewarmed to 37° C.) dropwise to the column. The T-cells obtained from the elution of the column were centrifuged (850 g for 5 min) and resuspended in RPMI containing L-glutamine and 5% human serum and stimulated with 0.5 ng/ml PMA and 500 ng/ml lonomycin for 48 h.
DNA synthesis was assessed by measuring the incorporation of [^3H]-thymidine. The assay was carried out in a 96-well plate. 20 μl of test compounds at 10× the final concentration were added to the plate followed by 200 μl of T-cells per well (2×10^5 cells). The cells were cultured for 4 h under standard cell culture conditions and cultures were pulsed with ^3H-thymidine (0.5 μCi/well; Amersham) for the final hour of the incubation.
Background: Incorporation of labelled thymidine or its analogues reports DNA synthesis.

Assay [3] deals with activated T-lymphocytes. The assay is described as follows: Extracellular lactate levels in activated T-lymphocytes (lactate oxidase). To be noted: Homo sapiens, T-lymphocyte; Mean±s.e.mean (mean±range for n=2); read-out: pIA50 Extracellular Lactate (converted). In kind it is cell-based, human. How it is done: as §1
20 μl of each concentration were added to triplicate wells of a 96-well plate. T-cells were then added (200 μl per well, 2×10^5 cells) and were cultured for 4 h under standard cell culture conditions. The cell supernatants were collected from each well after the cells were pelleted by centrifugation of the plate at 850 g for 5 min at 4° C. 10 μl of each supernatant sample were used for the lactate determination.
(§2) The assay was carried out in 96-well plates at room temperature. 10 μl of standard or sample were added to each well followed by 200 μl of the Lactate Reagent. […] The data were collected and analysed using SOFTmax PRO software (Molecular Devices).

Assay [4] deals with T1, human MCT1 (Homo sapiens, UniProt P53985, D490E).
T1 sequence (P53985 1-500 D490E): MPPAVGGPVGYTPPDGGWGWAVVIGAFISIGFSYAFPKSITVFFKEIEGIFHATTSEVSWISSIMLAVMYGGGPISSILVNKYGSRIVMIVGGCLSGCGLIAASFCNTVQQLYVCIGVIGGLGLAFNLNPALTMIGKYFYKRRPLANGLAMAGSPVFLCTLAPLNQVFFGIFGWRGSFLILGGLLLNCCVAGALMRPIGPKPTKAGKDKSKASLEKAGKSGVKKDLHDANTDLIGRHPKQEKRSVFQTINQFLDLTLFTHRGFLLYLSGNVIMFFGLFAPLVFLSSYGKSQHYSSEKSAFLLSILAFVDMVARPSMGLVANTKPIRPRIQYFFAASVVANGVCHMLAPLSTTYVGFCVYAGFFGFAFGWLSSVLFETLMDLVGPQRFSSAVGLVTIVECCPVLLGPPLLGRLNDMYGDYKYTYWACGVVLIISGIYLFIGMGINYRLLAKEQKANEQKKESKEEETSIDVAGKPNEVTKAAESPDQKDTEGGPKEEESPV
T1 sequence (P26453 142-388 partner limits assumed): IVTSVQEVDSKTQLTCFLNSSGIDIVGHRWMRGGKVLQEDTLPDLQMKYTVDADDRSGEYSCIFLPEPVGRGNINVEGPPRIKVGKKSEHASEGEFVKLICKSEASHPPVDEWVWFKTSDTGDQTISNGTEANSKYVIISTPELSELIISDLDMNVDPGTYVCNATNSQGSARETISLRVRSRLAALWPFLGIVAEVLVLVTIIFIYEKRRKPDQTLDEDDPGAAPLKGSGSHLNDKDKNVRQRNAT
The assay is described as follows: Lactate uptake by change in intracellular pH (BCECF) in INS-1 cells expressing MCT. To be noted: 100 nM, INS-1 cells expressing human MCT1, n=2. In kind it is cell-based.
Source text: As lactate entry into cells is proton-linked, the addition of exogenous lactate to cells expressing functionally active MCT isoforms results in a significant decrease in intracellular pH. Lactate uptake by this method can be measured in cells endogenously expressing MCT isoforms (e.g., K562 and MDA-MB231 cells) or in cells transfected with cloned MCT isoforms (e.g., MCT1, 3 and 4) expressed in SF9 or INS-1 cells as follows. […] INS-1 cells were transfected with pcDNA3-hMCT1 using the Fugene™ 6 Transfection Reagent (Roche Molecular Biochemicals, Indianapolis, Ind., USA) to manufacturers instructions. Stably transfected cells were selected with 100 μg/ml Genetecin (Gibco Laboratories, Grand Island, N.Y.) to generate INS-1 MCT1 mixed populations, which were subsequently dilution cloned to generate INS-1 MCT1 clones. […]
Following BCECF labelling, 10 μl of the relevant cell suspension was added to each well of a 96 well plate (Biocat Poly-D-Lysine coated clear-bottomed black plates, Becton Dickinson) and 10 μl of inhibitor or vehicle control was added per well at 10× final concentration. […] The 96 well plate was then placed in the FLEXstation and fluorescence was measured using the following wavelengths:
The experiment was set up so that a reading at time zero was made, the lactate was added to the plate, and then readings were made every 3 seconds for 3 mins. […]

In assay [5] the test system is Splenic B-lymphocytes. Nature of the assay: Inhibition of B-lymphocyte proliferation. Conditions: 48 hours. In kind it is cell-based, Balb/c mice. As to the method:
Splenic B-lymphocytes were obtained from Balb/c mice by disruption of the spleen through a nylon sieve. The resultant cellular suspension was washed three times by centrifugation. The spleen cells were then plated out in flat-bottomed 96 well microtitre plates at a concentration of 2-4×10^5 cells per well. B-lymphocyte stimulators were added with or without compound. Stimulators employed were lipopolysaccharide (LPS) at 50 μg/ml, 8-mercaptoguanosine (8MG) at 100 μg/ml, or goat anti mouse IgM at 40 μg/ml. […] The cultures were incubated for 48 hours at 37° C. and pulsed with tritiated thymidine for the final 6 hours. The cells were harvested as described previously and thymidine uptake used as a measure of DNA synthesis.

In assay [6] the test system is activated T-lymphocytes. The assay is described as follows: Intracellular lactate levels in activated T-lymphocytes (lactate oxidase). In kind it is cell-based. To be noted: Homo sapiens, T-lymphocyte; Mean±s.e.mean (mean±range for n=2); read-out: pIA50 Intracellular Lactate (converted). How it is done:
as §1
100 μl of each concentration were added to triplicate wells of a 24-well plate. T-cells were then added (1 ml per well) and were cultured for 4 h under standard cell culture conditions. The cells were then transferred from each well to microfuge tubes and were centrifuged at 360 g for 5 min at 4° C. The supernatant was discarded and the cell pellet was resuspended in 1 ml of ice-cold PBS, pH5.0. The cells were washed twice in PBS by centrifugation (360 g, 5 min, 4° C.) followed by resuspension of the cell pellet in 100 μl deionized water. The cells were incubated for 15 min at 4° C. to allow cell lysis to occur and the cell debris was removed by centrifugation at 15000 g for 10 min at 4° C. 10 μl of each supernatant sample were used for the lactate determination.
as §2

Molecules are shown by their SMILES. Read-outs that look alike come from different tables or passages of the source.

`CC(C)Cc1nn(C)c(=O)c2c(SCCCO)n(Cc3cccc4ccccc34)cc12` [Ligand 2, 2,6-dihydro-7-[(3-hydroxypropyl)thio]-2-methyl-4-(2-methylpropyl)-6-(1-napthanlenylmethyl)-1H-pyrrolo[3,4-d]pyridazin-1-one]: the IC50 in assay [1] was 0.38 nM; in assay [2], 1.35 nM; in assay [3], 0.794 nM; in assay [5] (Mus musculus, 8-mercaptoguanosine 100 μg/ml, partial inhibition, read-out: IA50, proliferative response to 8MG), 10 nM; in assay [5] (Mus musculus, LPS 50 μg/ml, partial inhibition, read-out: IA50, proliferative response to LPS) it was 5 nM; in assay [5] (goat anti mouse IgM 40 μg/ml, weak, read-out: IA50, proliferative response to goat anti-mouse IgM), above 100 nM. Besides, the “effect on decrease in intracellular pH on addition of exogenous lactate” value in assay [4] was “completely abolished”. For the same compound, in assay [6], the EC50 was 0.55 nM.

The record behind these values is patent US20040072746A1, “Inhibitors of monocarboxylate transport” (priority 2001, published 2004).
